Measured values taken from PMC11481871, “Discovery of GuaB inhibitors with efficacy against Acinetobacter baumannii infection” (mBio, 2024).
Values after ≈ are worked out from the molar mass of the structure shown. Values joined by “and” are separate entries in the source; they are usually repeats but may differ in a detail not shown here. Equal entries are not always repeated. Where two headings read alike, the source gives them in different places.

Tests used:
Staphylococcus aureus = experiment: MIC, CLSI microdilution; format: cell-based; details: NRS 384 / USA300; Staphylococcus aureus USA300 NRS384; RPMI1640
Citrobacter werkmanii = experiment: MIC, CLSI microdilution; format: cell-based; details: 20 h; Citrobacter werkmanii (ATCC51114); M9 + casamino acids + glucose
Serratia marcescens = experiment: MIC, CLSI microdilution; format: cell-based; details: 20 h; Serratia marcescens (ATCC29021); M9 + casamino acids + glucose
Bacillus subtilis = experiment: MIC, CLSI microdilution; format: cell-based; details: RPMI1640
Mycobacterium avium = experiment: MIC, CLSI microdilution; format: cell-based; details: 336 h; Mycobacterium avium (ATCC25291); 7H9 + OADC, 14 days
Enterobacter cloacae = experiment: MIC, CLSI microdilution; format: cell-based; details: 20 h; Enterobacter cloacae (ATCC222); M9 + casamino acids + glucose
Pseudomonas aeruginosa = experiment: MIC, CLSI microdilution; format: cell-based; details: 20 h; Pseudomonas aeruginosa PAO1; M9 + casamino acids + glucose
[1] = tested on: Stenotrophomonas maltophilia; experiment: MIC, CLSI microdilution; format: cell-based; details: 20 h; Stenotrophomonas maltophilia (ATCC700267); M9 + casamino acids + glucose
[2] = tested on: A. baumannii ΔlpxA (LPS-null); experiment: MIC on LPS-null A. baumannii; format: cell-based; details: Acinetobacter baumannii, read-out: Avg. MIC
Mycobacterium smegmatis = experiment: MIC, CLSI microdilution; format: cell-based; details: Mycolicibacterium smegmatis; Mycobacterium smegmatis mc2-155; 7H9 + OADC, 48 h
Enterococcus faecalis = experiment: MIC, CLSI microdilution; format: cell-based; details: Enterococcus faecalis (ATCC47077); RPMI1640
H. sapiens IMPDH2 = H. sapiens IMPDH2 (Homo sapiens, UniProt P12268); experiment: IMPDH2 biochemical IC50
Escherichia coli = experiment: MIC, CLSI microdilution; format: cell-based; details: 20 h; Escherichia coli UPEC CFT073; M9 + casamino acids + glucose
[3] = tested on: Acinetobacter baumannii ATCC19606 GuaB mutants; experiment: MIC on GuaBi-resistant A. baumannii 19606 guaB mutants; format: cell-based; details: for MIC: Acinetobacter baumannii
S. aureus GuaB = S. aureus GuaB (Staphylococcus aureus, UniProt P99106); experiment: GuaB biochemical IC50
A. baumannii GuaB = A. baumannii GuaB (Acinetobacter baumannii, UniProt D0CF46); experiment: GuaB biochemical IC50
hERG = target: T1, hERG (Homo sapiens, UniProt Q12809); experiment: hERG 2-point automatic patch clamp assay; format: cell-based
T1 construct: expressed in transfected cells; host or cells: HEK293
Procedure: All chemicals used in solution preparation were purchased from Sigma-Aldrich (St. Louis, MO) unless otherwise noted. Test article and positive control concentrations were prepared fresh daily by diluting stock solutions into a HEPES-buffered physiological saline solution (composition in mM): NaCl, 137; KCl, 4.0; CaCl2, 1.8; MgCl2, 1; HEPES, 10; glucose, 10; pH adjusted to 7.4 with NaOH. HEK293 cells were stably transfected with hERG cDNA and maintained in the culture medium with the appropriate selection pressure and antibiotics. All experiments were performed at room temperature. […]
In preparation for a recording session, intracellular solution was loaded into the intracellular compartments of the QPlate and cell suspension was pipetted into the extracellular compartments. After establishment of a whole-cell configuration, membrane currents were recorded using up to 48 parallel patch clamp amplifiers in the QPatch HT system. The current records were sampled at 2,000 Hz and low-pass Bessel filtered at 400 Hz. Onset and block of hERG current were measured using a stimulus voltage pattern consisting of a 500 ms prepulse to –40 mV (leakage subtraction), a 2-s activating pulse to +40 mV, followed by a 2-s test pulse to −40 mV. The pulse pattern was repeated continuously at 10-s intervals, from a holding potential of −80 mV. Peak tail current (upper panel) was measured during the −40 mV test pulse. Leakage current was calculated from the current amplitude evoked by the prepulse and subtracted from the total membrane current record. Data acquisition and analysis was performed using the QPatch Assay Software (Sophion Bioscience A/S, Denmark). Solubility of all compounds was measured using TurboSol in conjunction with the ion channel testing.

[4] = tested on: Staphylococcus epidermidis; experiment: MIC, CLSI microdilution; format: cell-based; details: Staphylococcus epidermidis RP62A (ATCC35984); RPMI1640
Enterococcus faecium = experiment: MIC, CLSI microdilution; format: cell-based; details: Enterococcus faecium (ATCC700221); RPMI1640
[5] = tested on: 41 different cellular targets; experiment: Secondary pharmacology panel (Cerep Eurofins); format: binding
[6] = tested on: Mycobacterium tuberculosis H37Rv; experiment: MIC, resazurin redox assay; format: cell-based; details: ATCC 27294 / H37Rv, 192 h, Mycobacterium tuberculosis H37Rv (ATCC27294)
Mycobacterium marinum = experiment: MIC, CLSI microdilution; format: cell-based; details: 7H9 + OADC, 48 h
Klebsiella pneumoniae = experiment: MIC, CLSI microdilution; format: cell-based; details: ATCC43816, 20 h; Klebsiella pneumoniae (ATCC 43816); M9 + casamino acids + glucose
[7] = resistance allele Y445N, from fluctuation assay

T1 sequence (Q12809 whole entry): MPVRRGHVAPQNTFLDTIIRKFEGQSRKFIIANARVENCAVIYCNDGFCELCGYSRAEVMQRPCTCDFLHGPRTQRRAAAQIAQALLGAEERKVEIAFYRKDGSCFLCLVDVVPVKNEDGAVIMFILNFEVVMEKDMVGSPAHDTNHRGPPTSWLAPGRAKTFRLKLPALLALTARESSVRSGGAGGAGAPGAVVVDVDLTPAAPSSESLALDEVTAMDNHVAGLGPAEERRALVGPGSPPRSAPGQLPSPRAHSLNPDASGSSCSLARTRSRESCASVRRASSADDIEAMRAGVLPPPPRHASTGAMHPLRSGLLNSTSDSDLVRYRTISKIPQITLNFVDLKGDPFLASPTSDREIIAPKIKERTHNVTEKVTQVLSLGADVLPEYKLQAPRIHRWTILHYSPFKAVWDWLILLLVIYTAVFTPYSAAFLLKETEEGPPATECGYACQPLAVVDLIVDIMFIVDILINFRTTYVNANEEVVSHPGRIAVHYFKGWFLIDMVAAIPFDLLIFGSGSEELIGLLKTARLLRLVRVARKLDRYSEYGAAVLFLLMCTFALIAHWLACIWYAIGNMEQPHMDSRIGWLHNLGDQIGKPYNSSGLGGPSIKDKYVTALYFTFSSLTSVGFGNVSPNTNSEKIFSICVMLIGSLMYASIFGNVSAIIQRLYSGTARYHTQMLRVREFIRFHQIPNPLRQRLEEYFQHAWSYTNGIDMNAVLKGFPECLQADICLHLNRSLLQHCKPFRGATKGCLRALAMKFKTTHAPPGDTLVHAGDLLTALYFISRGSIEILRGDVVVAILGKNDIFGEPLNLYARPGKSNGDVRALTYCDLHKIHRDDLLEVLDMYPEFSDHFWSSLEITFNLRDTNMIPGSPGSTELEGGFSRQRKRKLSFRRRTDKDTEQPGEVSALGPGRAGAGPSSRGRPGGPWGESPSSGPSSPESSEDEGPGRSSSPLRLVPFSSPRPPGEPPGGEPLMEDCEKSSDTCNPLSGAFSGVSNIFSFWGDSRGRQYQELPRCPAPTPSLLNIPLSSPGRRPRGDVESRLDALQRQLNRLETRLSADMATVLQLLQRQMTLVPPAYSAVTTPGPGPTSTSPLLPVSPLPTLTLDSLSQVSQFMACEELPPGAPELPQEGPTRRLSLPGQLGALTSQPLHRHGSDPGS
Sequence of S. aureus GuaB (P99106 whole entry): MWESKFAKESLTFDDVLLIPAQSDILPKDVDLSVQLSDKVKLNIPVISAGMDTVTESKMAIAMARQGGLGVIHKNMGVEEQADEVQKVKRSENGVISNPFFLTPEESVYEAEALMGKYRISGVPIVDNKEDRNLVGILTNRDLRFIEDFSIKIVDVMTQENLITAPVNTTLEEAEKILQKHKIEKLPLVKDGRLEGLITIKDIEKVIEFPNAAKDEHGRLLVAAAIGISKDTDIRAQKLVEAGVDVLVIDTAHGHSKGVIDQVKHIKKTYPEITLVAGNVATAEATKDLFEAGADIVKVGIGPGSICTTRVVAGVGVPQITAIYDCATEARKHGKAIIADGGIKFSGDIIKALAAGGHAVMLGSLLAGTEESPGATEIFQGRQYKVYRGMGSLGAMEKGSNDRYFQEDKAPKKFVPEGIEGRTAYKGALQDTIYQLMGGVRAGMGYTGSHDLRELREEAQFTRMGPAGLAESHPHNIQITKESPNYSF
Sequence of A. baumannii GuaB (D0CF46 entry or part of it): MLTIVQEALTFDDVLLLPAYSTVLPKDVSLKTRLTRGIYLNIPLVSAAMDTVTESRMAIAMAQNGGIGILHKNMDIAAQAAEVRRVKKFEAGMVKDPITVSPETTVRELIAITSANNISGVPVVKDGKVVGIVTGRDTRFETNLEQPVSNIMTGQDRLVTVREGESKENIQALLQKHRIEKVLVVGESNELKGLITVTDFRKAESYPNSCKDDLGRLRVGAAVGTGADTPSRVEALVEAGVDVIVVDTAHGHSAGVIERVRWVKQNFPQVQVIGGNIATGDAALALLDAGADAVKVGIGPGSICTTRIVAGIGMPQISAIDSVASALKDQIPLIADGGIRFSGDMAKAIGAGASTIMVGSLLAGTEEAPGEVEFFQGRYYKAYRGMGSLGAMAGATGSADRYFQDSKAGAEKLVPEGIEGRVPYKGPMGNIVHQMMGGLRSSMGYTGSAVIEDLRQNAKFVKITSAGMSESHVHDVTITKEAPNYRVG

## C[C@H](Nc1ccc2ncc3c(c2c1)CCOC3)C(=O)Nc1ccc(Cl)nc1 [G1, (2S)-N-(6-chloro-3-pyridyl)-2-(2,4-dihydro-1H-pyrano[3,4-c]quinolin-9 ylamino)propanamide]
Staphylococcus aureus
  MIC: 0.1 µM (≈ 0.0383 µg/mL)
Citrobacter werkmanii
  MIC: > 100 µM
Serratia marcescens
  MIC: > 100 µM
Bacillus subtilis
  MIC: 1.2 µM (≈ 0.459 µg/mL)
Mycobacterium avium
  MIC: 0.8 µM
Enterobacter cloacae
  MIC: > 100 µM
Pseudomonas aeruginosa
  MIC: 100 µM
[1]
  MIC: 14 µM
[2]
  MIC: 0.025 µM (≈ 0.00957 µg/mL)
Mycobacterium smegmatis
  MIC: 0.01 µM
Enterococcus faecalis
  MIC: 0.2 µM (≈ 0.0766 µg/mL)
H. sapiens IMPDH2
  IC50: > 50000 nM
Escherichia coli
  MIC: > 100 µM
[3]; ATCC19606, read-out: A.b.19606 Average CLSI MIC (n=3), guaB allele P25A, M9 media
  MIC: 6.3 µM (≈ 2.41 µg/mL)
[3]; ATCC19606, read-out: A.b.19606 Average CLSI MIC (n=3), guaB allele P25S, M9 media
  MIC: 2.6 µM (≈ 0.995 µg/mL)
[3]; ATCC19606, read-out: A.b.19606 Average CLSI MIC (n=3), guaB allele Y445C, M9 media
  MIC: 1.6 µM (≈ 0.613 µg/mL)
[3]; ATCC19606, read-out: A.b.19606 Average CLSI MIC (n=3), guaB allele Y445N, M9 media
  MIC: 41.7 µM (≈ 16 µg/mL)
[3]; ATCC19606, read-out: A.b.19606 Average CLSI MIC (n=3), guaB allele Y445S, M9 media
  MIC: > 100 µM
[3]; ATCC19606, read-out: MIC of resistant mutant, resistance allele Y445N, from fluctuation assay
  MIC: 50 µM
[3]; ATCC19606, read-out: MIC of resistant mutant, resistance allele Y445S, from fluctuation assay
  MIC: 50 µM
[3]; GuaBi-resistant mutants
  shifts in MIC conferred by on-target mutations: ≥ 32 fold
[3]; guaB allele P25A
  GuaBi CLSI MIC fold change from parent strain: 12
[3]; guaB allele P25S
  GuaBi CLSI MIC fold change from parent strain: 5
[3]; guaB allele Y445C
  GuaBi CLSI MIC fold change from parent strain: 3
[3]; guaB allele Y445N
  GuaBi CLSI MIC fold change from parent strain: 80
[3]; guaB allele Y445S
  GuaBi CLSI MIC fold change from parent strain: >200
[3]; [7]
  Fold shift in MIC vs parental wild-type: 64, 64 and 64
  MIC of resistant mutant: 50 µM
[3]; resistance allele Y445S, from fluctuation assay
  Fold shift in MIC vs parental wild-type: 64, 64
S. aureus GuaB
  IC50: 0.38 nM
A. baumannii GuaB
  IC50: 0.26 nM
hERG; 1µM
  hERG 1µM: 2.80%
hERG; 10µM
  hERG 10µM: 37.20%
[4]
  MIC: 0.03 µM (≈ 0.0115 µg/mL)
Enterococcus faecium
  MIC: 1 µM (≈ 0.383 µg/mL)
[5]
  in vitro safety profile: promiscuity: low promiscuity
  in vitro safety profile: selectivity: good selectivity
[5]; 10µM
  Promiscuity Risk: 0%
  Selectivity Risk: 0%
[5]; 10µM, 41 targets
  Hits (>50% Binding): 0
  Hits (>75% Binding): 0
[6]
  MIC: 0.3 µM (≈ 0.115 µg/mL)
Mycobacterium marinum
  MIC: 0.01 µM
Klebsiella pneumoniae
  MIC: > 100 µM
